Where two headings read alike, the source gives them in different places.
Experiments:
Assay type in all cases: biochemical
PKCα = PKCα (Homo sapiens, UniProt P17252); test: PKCα kinase Caliper assay
Experimental: PKCα and cABLT315 Kinase Caliper Assays
Assays were performed in 384 well microtiter plates. Each assay plate contained 8-point serial dilutions for test compounds, as well as two 16-point serial dilutions of staurosporine as reference compound, plus 16 high- and 16 low controls. Liquid handling and incubation steps were done on a Thermo CatX workstation equipped with a Innovadyne Nanodrop Express. Between pipetting steps, tips were cleaned in wash cycles using wash buffer. Plates with terminated kinase reactions were transferred to the Caliper LC3000 workstations for reading. Phosphorylated and unphosphorylated peptides were separated using the Caliper microfluidic mobilitishift technology and Kinase activities were calculated from the amounts of formed phospho-peptide.
1. 0.05 μA Compound (start with 1.8 mM in 90% DMSO/10% H2O)
2. +4.5 μl 2× peptide/ATP solution
3. +4.5 μl 2× enzyme solution
4. Incubate for 60 min at 30° C.
4. +16 μl stop/run buffer
Independent of the kinase, all reactions were done performed in 50 mM HEPES, pH 7.5, 1 mM DTT, 0.02% Tween20, 0.02% BSA, and 0.6% DMSO.

PDGFRaV561D kinase = PDGFRaV561D kinase (Homo sapiens, UniProt P16234, V561D); test: PDGFRaV561D kinase inhibition assay (LanthaScreen TR-FRET); conditions: read-out: PDGFRa IC50
PDGFRaV561D kinase, sequence (P16234 24-1089 V561D): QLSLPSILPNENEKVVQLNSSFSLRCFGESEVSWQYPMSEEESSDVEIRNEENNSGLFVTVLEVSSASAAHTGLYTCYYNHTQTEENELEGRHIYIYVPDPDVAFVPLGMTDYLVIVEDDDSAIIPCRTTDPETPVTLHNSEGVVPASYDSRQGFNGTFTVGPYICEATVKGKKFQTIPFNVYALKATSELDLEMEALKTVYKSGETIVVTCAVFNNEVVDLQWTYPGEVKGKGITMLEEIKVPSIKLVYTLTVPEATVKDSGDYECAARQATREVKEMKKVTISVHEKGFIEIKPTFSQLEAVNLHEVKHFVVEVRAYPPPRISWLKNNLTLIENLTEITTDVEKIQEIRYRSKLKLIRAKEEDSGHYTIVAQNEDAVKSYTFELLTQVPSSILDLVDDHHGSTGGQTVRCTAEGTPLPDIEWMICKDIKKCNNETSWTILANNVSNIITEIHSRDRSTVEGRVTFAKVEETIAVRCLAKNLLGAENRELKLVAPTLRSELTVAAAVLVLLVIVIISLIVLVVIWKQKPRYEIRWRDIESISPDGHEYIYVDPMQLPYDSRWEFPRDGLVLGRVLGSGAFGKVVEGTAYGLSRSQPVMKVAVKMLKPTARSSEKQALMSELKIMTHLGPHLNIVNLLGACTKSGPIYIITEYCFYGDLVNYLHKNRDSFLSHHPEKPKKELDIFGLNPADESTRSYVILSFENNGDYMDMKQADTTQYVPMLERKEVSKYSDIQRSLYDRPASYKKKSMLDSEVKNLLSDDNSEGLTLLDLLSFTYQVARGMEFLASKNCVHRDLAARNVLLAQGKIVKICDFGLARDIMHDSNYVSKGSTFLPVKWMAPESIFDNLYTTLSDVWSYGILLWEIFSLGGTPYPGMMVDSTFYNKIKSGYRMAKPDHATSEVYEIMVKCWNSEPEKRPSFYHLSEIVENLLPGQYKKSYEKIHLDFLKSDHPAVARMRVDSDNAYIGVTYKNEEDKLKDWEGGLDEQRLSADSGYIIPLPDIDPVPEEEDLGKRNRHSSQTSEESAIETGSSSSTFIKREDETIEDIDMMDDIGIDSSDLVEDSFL
Experimental: PDGFRaV561D Kinase Inhibition Assay
LanthaScreen™ is the detection of Time-Resolved Fluorescence Resonance Energy Transfer (TR-FRET) using lanthanide chelates to measure interactions between various binding partners. The application of TR-FRET to assay kinase activity was first described by Mathis (1995). A TR-FRET assay was used to measure PDGFRaV561D kinase inhibitory activity. The assay panel was run on a Biomek FX liquid handling workstations. To the assay plates containing […] compound or control solutions, 4.5 μL of buffer A (50 mM TRIS-HCl pH 7.4, 2 mM DTT, 0.02% Tween 20, 0.02 mM Na3VO4, H2O nanpure) including a generic concentration of ATP (2 μM f.c.) was added per well, followed by […] of buffer B (4 uM ATP in Buffer A) including a generic concentration of polyEAY (50 nM f.c.), PDGFRaV561D kinase, and divalent cations. Final concentration of kinase and cations were: [PDGFRaV561D kinase]=4.4 nM, [Mn]=10 mM. After 1 hour of incubation the kinase reactions were stopped by the addition of 4.5 μL of stop solution D (50 mM EDTA, 20 mM TRIS-HCl pH 7.4, 0.04% NP-40) immediately followed by 4.5 μL of buffer A (50 mM TRIS-HCl pH 7.4, 2 mM DTT, 0.02% Tween 20, 0.02 mM Na3VO4, H2O nanpure) including the Tb-labeled P-20 antibody to give a total detection volume of […]. After an incubation time of 45 min in the dark, the plates were transferred into the Pherastar fluorescence reader for counting. The effect of compound on the enzymatic activity was obtained from the linear progress curves and determined from one reading (end point measurement).

GSK3β = GSK3β (Homo sapiens, UniProt P49841); test: GSK3β ATP depletion assay; conditions: read-out: GSK3b IC50
GSK3β, sequence (P49841 whole entry, species assumed): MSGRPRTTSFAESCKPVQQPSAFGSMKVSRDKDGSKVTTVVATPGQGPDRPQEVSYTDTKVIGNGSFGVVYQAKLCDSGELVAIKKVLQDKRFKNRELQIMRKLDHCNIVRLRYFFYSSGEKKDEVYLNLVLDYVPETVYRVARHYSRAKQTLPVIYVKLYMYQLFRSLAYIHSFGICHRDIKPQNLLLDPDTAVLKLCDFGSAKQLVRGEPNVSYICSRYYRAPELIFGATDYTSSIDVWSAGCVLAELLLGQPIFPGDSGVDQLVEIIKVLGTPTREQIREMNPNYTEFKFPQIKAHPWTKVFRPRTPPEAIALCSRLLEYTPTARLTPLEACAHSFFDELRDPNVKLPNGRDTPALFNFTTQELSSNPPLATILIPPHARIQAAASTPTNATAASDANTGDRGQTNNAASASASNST
Summary of the method: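 Kinase activity is read as ATP consumption: luciferase luminescence reports the ATP remaining once roughly half of the 2 μM ATP is used. Reaction mix: 5 nM GSK3β, 10 μM b-CREB peptide, 50 mM Tris pH 7.5, 15 mM MgCl2, 1 mM DTT, 0.1% BSA, 2.5% DMSO. Enzyme and peptide are preincubated 15 min before ATP is added.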

[1] = PKCα Caliper assay, read-out: PKC IC50

Row | Compound | IC50 (PKCα; read-out: PKC IC50) [nM] | IC50 (PDGFRaV561D kinase) [nM] | IC50 (GSK3β) [nM] | IC50 (PKCα; [1]) [nM] | IC50 (GSK3β; ATP depletion assay) [nM] | IC50 (PKCα) [nM]
1 | Nc1ncc(-c2ccccc2)nc1C(=O)Nc1cnccc1[C@H]1C[C@@H](O)[C@@]2(O)CCC[C@H]2O1 [Example 195, 3-amino-N-(4-((2R,4R,4aS,7aR)-4,4a-dihydroxyoctahydrocyclopenta[b]pyran-2-yl)pyridin-3-yl)-6-phenylpyrazine-2-carboxamide] | 230 | 33 | 1 |  |  | 
2 | O=C1CC[C@H]2O[C@@H](c3ccncc3NC(=O)c3ccc(F)c(-c4c(F)cccc4F)n3)C[C@@H](O)[C@@H]2N1 [Example 196, 6-(2,6-difluorophenyl)-5-fluoro-N-(4-((2R,4R,4aS,8aR)-4-hydroxy-6-oxooctahydro-2H-pyrano[3,2-b]pyridin-2-yl)pyridin-3-yl)picolinamide] | > 10000 | > 10000 | 645 |  |  | 
3 | Nc1ncc(-c2ccccc2)nc1C(=O)Nc1cnccc1[C@H]1C[C@@H](N)[C@@]2(O)CCCC[C@H]2O1 [Example 197, 3-amino-N-(4-((2R,4R,4aS,8aR)-4-amino-4a-hydroxyoctahydro-2H-chromen-2-yl)pyridin-3-yl)-6-phenylpyrazine-2-carboxamide] |  | 23 |  | 41 | 8 | 
4 | Nc1ncc(-c2ccccc2)nc1C(=O)Nc1cnccc1[C@H]1C[C@@H](N)[C@H]2CCC[C@H]2O1 [Example 199, 3-amino-N-(4-((2R,4R,4aR,7aR)-4-aminooctahydrocyclopenta[b]pyran-2-yl)pyridin-3-yl)-6-phenylpyrazine-2-carboxamide] |  | 14 |  | 31 | 7.6 | 
5 | N[C@@H]1C[C@H](c2ccncc2NC(=O)c2ccc(F)c(-c3c(F)cccc3F)n2)O[C@@H]2CCC[C@]12O [Example 210, N-(4-((2R,4R,4aS,7aR)-4-amino-4a-hydroxyoctahydrocyclopenta[b]pyran-2-yl)pyridin-3-yl)-6-(2,6-difluorophenyl)-5-fluoropicolinamide] | > 10000 | 400 | 290 |  |  | 
6 | Nc1cnc(-c2c(F)cccc2F)nc1C(=O)Nc1cnccc1[C@H]1C[C@@H](N)[C@@]2(O)CCC[C@H]2O1 [Example 213, 5-amino-N-(4-((2R,4R,4aS,7aR)-4-amino-4a-hydroxyoctahydrocyclopenta[b]pyran-2-yl)pyridin-3-yl)-2-(2,6-difluorophenyl)pyrimidine-4-carboxamide] | > 10000 | 4000 | 558 |  |  | 
7 | C[C@H]1O[C@@H](c2ccncc2NC(=O)c2ccc(F)c(-c3c(F)cccc3F)n2)C[C@@H](N)[C@]1(C)O [Example 219, N-(4-((2R,4R,5S,6R)-4-amino-5-hydroxy-5,6-dimethyltetrahydro-2H-pyran-2-yl)pyridin-3-yl)-6-(2,6-difluorophenyl)-5-fluoropicolinamide] |  | 630 |  | > 10000 | 979 | 
8 | N[C@@H]1C[C@H](c2ccncc2NC(=O)c2ccc(F)c(-c3c(F)cccc3F)n2)O[C@@H]2CCC[C@H]12 [Example 224, N-(4-((2R,4R,4aR,7aR)-4-aminooctahydrocyclopenta[b]pyran-2-yl)pyridin-3-yl)-6-(2,6-difluorophenyl)-5-fluoropicolinamide] |  | 390 |  | > 10000 | 363 | 
9 | CC(C)(C)[C@@H]1O[C@H](c2ccncc2NC(=O)c2nc(-c3ccccc3)cnc2N)C[C@@H](N)[C@H]1O [Example 227, 3-amino-N-(4-((2S,4R,5R,6S)-4-amino-6-tert-butyl-5-hydroxytetrahydro-2H-pyran-2-yl)pyridin-3-yl)-6-phenylpyrazine-2-carboxamide] |  | 1300 |  | 55 | 6.4 | 
10 | C[C@H]1O[C@@H](c2ccncc2NC(=O)c2nc(-c3ccccc3)cnc2N)C[C@@H](N)[C@]1(C)O [Example 228, 3-amino-N-(4-((2R,4R,5S,6R)-4-amino-5-hydroxy-5,6-dimethyltetrahydro-2H-pyran-2-yl)pyridin-3-yl)-6-phenylpyrazine-2-carboxamide] |  | 37 |  | 76 | 13 | 
11 | C[C@@H]1O[C@H](c2ccncc2NC(=O)c2nc(-c3ccccc3)cnc2N)C[C@H](N)[C@@]1(C)O [Example 229, 3-amino-N-(4-((2S,4S,5R,6S)-4-amino-5-hydroxy-5,6-dimethyltetrahydro-2H-pyran-2-yl)pyridin-3-yl)-6-phenylpyrazine-2-carboxamide] |  | 1000 |  | 370 | 39 | 
12 | N[C@H]1C[C@@H](c2ccncc2NC(=O)c2csc(-c3c(F)cccc3F)n2)O[C@H]2CCC[C@H]21 [Example 230, N-(4-((2S,4S,4aS,7aS)-4-aminooctahydrocyclopenta[b]pyran-2-yl)pyridin-3-yl)-2-(2,6-difluorophenyl)thiazole-4-carboxamide] |  | 1500 |  | 1100 | 4580 | 
13 | Nc1ncc(-c2ccccc2)nc1C(=O)Nc1cnccc1[C@@H]1C[C@H](N)[C@@H]2CCC[C@@H]2O1 [Example 233, 3-amino-N-(4-((2S,4S,4aS,7aS)-4-aminooctahydrocyclopenta[b]pyran-2-yl)pyridin-3-yl)-6-phenylpyrazine-2-carboxamide] |  | 940 |  | 550 | 330 | 
14 | Nc1cc(F)c(-c2c(F)cccc2F)nc1C(=O)Nc1cnccc1[C@H]1C[C@@H](N)[C@@]2(O)CCCC[C@H]2O1 [Example 238, 3-amino-N-(4-((2R,4R,4aS,8aR)-4-amino-4a-hydroxyoctahydro-2H-chromen-2-yl)pyridin-3-yl)-6-(2,6-difluorophenyl)-5-fluoropicolinamide] |  | 7500 |  |  | 393 | > 10000
15 | CC(C)[C@@H]1O[C@H](c2ccncc2NC(=O)c2nc(-c3ccccc3)cnc2N)C[C@H](N)[C@H]1O [Example 240, 3-amino-N-(4-((2S,4S,5R,6S)-4-amino-5-hydroxy-6-isopropyltetrahydro-2H-pyran-2-yl)pyridin-3-yl)-6-phenylpyrazine-2-carboxamide] |  | 7300 |  | 290 | 270 | 
16 | COc1cc(F)c(-c2nc(C(=O)Nc3cnccc3[C@H]3C[C@@H](N)[C@](C)(O)[C@@H](C)O3)ccc2F)c(F)c1 [Example 242, N-(4-((2R,4R,5S,6R)-4-amino-5-hydroxy-5,6-dimethyltetrahydro-2H-pyran-2-yl)pyridin-3-yl)-6-(2,6-difluoro-4-methoxyphenyl)-5-fluoropicolinamide] |  | 400 |  | > 10000 | 471 | 
17 | Nc1ncc(-c2ccccc2)nc1C(=O)Nc1cnccc1[C@@H]1C[C@H](N)[C@]2(O)CCCC[C@@H]2O1 [Example 243, 3-amino-N-(4-((2S,4S,4aR,8aS)-4-amino-4a-hydroxyoctahydro-2H-chromen-2-yl)pyridin-3-yl)-6-phenylpyrazine-2-carboxamide] |  | 8300 |  | 7200 | 870 | 
18 | CC(C)[C@@H]1C[C@H](N)C[C@H](c2ccncc2NC(=O)c2nc(-c3ccccc3)cnc2N)O1 [Example 291, 3-amino-N-(4-((2R,4S,6S)-4-amino-6-isopropyltetrahydro-2H-pyran-2-yl)pyridin-3-yl)-6-phenylpyrazine-2-carboxamide] |  | 81 |  | 43 | 4.4 | 
